Measurements from publication PMC5217690 (The Journal of Biological Chemistry, 2016).
Changes are numbered by the printed parent chain.

Experiments:
TrmDEC [1] = target: T1, TrmDEC (Escherichia coli, UniProt P0A873, Y86L); assay: ITC; assay type: binding
T1 construct: gene trmD; full-length, N-terminal His tag (pET28b), expressed in E. coli BL21(DE3), tag kept
T1 sequence (P0A873 2-255 Y86L): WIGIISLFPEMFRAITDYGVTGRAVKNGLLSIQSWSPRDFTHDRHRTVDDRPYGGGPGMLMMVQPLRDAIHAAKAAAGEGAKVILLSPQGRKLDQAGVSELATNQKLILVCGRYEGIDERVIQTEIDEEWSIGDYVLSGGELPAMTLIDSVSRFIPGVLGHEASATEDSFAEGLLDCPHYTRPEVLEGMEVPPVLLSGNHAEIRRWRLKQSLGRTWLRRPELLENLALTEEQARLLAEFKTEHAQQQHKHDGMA

TrmDEC [2] = target: T2, TrmDEC (Escherichia coli, UniProt P0A873, Y86F); assay: ITC; assay type: binding
T2 construct: gene trmD; full-length, N-terminal His tag (pET28b), expressed in E. coli BL21(DE3), tag kept
T2 sequence (P0A873 2-255 Y86F): T1 sequence (P0A873 2-255 Y86L) with L85F

C[S+](CC[C@H](N)C(=O)O)C[C@H]1O[C@@H](n2cnc3c(N)ncnc32)[C@H](O)[C@@H]1O (some centres unmarked) [AdoMet]
Kd (TrmDEC [1]): 69.9 µM | Kd (TrmDEC [2]): 27.9 µM
